Experimental data taken from patent US10272056B2, “Treatment for mitochondrial diseases” (The George Washington University a Congressionally …, priority 2015, dated 2019).

Columns and labels:
[1] = tested on: E17.5 hippocampal neurons; assay: Mitochondrial mass in neurons (mito-GFP, quantitative immunohistochemistry COXVα/tubulin); type: cell-based; details: NaBt-treated E17.5 neurons; control 7%
Description: (§1) FIG. 7A-7F show images from microscopy and graphs showing NaBt increases mitochondrial mass. (A) Live cell confocal microscopy of E17.5 hippocampal neurons; high magnification in inset; scale bar=5 (B) Quantitative analysis of the mitochondrial biomass in E17.5 neurons using an anti-CoxVα antibody; *p<0.001. (C) Live cell confocal microscopy of PC12-ND6 cells; high magnification in inset; scale bar=5 (D) Flow cytometric analysis of mitochondrial mass; *p<0.001. (E) Confocal microscopy of E17.5 brains from E12.5 pregnant dams treated with PBS (sham) or NaBt; scale bar=20 (F) Quantitative analysis of mitochondrial mass; *p<0.001.
(§2) Experimental approaches. Five distinct molecular tools were used to investigate mitochondrial biogenesis: 1) the mitochondrial-specific dyes, MitoTracker® Green (MTG) and MitoTracker® Red (MTR); 2) the mito-GFP or mito-dsRed vector to fluorescently label mitochondria; 3) antibodies against mtDNA, COXVα, or SOD2; 4) the fluorescent PicoGreen® dye labeling mtDNA; and 5) quantitative PCR to determine mtDNA copy number.
The effect of NaBt was investigated in embryonic neuronal progenitor cells, E17.5 hippocampal neurons, which were transfected with the mito-GFP vector and then exposed to various concentrations of NaBt. […] Therefore, all subsequent treatment of E17.5 hippocampal neurons with NaBt was performed in the presence of 2 mM. […]

[2] = tested on: PC12-ND6 cells; assay: Mitochondrial mass (mito-GFP live cell microscopy, MTG/MTR flow cytometry); type: cell-based
Experimental: PC12-ND6 cells were transfected with the mito-GFP vector prior to treatment with NaBt (5 mM) for the indicated time points. Mitochondria were visualized by live cell microscopy; scale bar=5 μm.
as §1, §2
NaBt increases the mitochondrial biomass of neuronal cells in vitro and in vivo. To investigate the effect of NaBt on mitochondrial mass, PC12-ND6 cells were transfected with the mito-GFP vector before performing a time course analysis of NaBt (5 mM) treatment.
The effect of NaBt was investigated in embryonic neuronal progenitor cells, E17.5 hippocampal neurons, which were transfected with the mito-GFP vector and then exposed to various concentrations of NaBt. […] Therefore, all subsequent treatment of E17.5 hippocampal neurons with NaBt was performed in the presence of 2 mM. […] Flow cytometric analysis using MTG- or MTR-labeled cells corroborated the NaBt-mediated increase in mitochondrial mass (FIG. 7D).

[3] = tested on: HDAC1-3 enzymes; details: via the HDAC1-3 enzymes; cited from earlier work
[4] = tested on: histones H2B, H3 and H4 proteins; assay: Acetylation of specific lysine residues of histones (immunocytochemistry); type: cell-based; details: NaBt 5 mM, three days, PC12-ND6 cells
Experimental: PC12-ND 6 cells were treated with NaBt (5 mM) for three days before performing immunocytochemistry to evaluate the acetylation status of lysine residues of key histone proteins, as listed on top of each confocal micrograph. Left panels illustrate representative pictures of PC12-ND6 cells grown in the absence (control) or presence of NaBt for three days and labeled with specific acetylated Lys antibody (green) and DAPI as a nuclear label (blue). Scale bar represents 10 μm. The right panels show the graph for each quantification of acetylated lysine residue for key histone proteins. Results are expressed as relative fluorescence intensity±S.D. (1000 cells per condition; n=3; * p=0.0001).
Sodium butyrate induces epigenetic reprogramming by acetylating key amino acid residues of histone proteins H2B, H3 and H4. Histone acetylation, which is mediated by two groups of enzymes, histone acetyltransferases (HATs) and histone deacetylases (HDAC), promote gene expression responsible to induce differentiation of neural stem cells and neural progenitor cells. Epigenetic regulators, such as the NaBt and its derivatives, inhibit the activity of HDAC enzymes, thereby favoring HAT activity and inducing an open chromatin structure to allow easy access to the DNA via histone acetylation. Thus, which lysine residues of key histone proteins were targeted by NaBt ws investigated. The lysine residue K27 of the histone H3 protein was targeted, as it is known to be acetylated to favor expression of lineage-specific genes associated with neural differentiation of progenitors and stem cells. Immunocytochemistry results confirmed that NaBt induced a 210% increased acetylation of the K27 residue of H3 (FIG. 5). Analysis was extended to additional acetylation marks, such as the lysine residue K9 of the histone H3, the K12 residue of histone H4 […] are important indicators of active enhancer elements. […] Thus, NaBt induces a specific epigenetic reprogramming of neural-like progenitor PC12-ND6 cell by inducing a series of acetylation marks to confer transcriptional competence.

[5] = tested on: E17.5 neurons; assay: In vivo mitochondrial mass of E17.5 brains from treated pregnant dams; set-up: species or system mice; details: E12.5 pregnant dams, NaBt 1.2 g/Kg intraperitoneally vs PBS
Description: as §1
Experimental paradigms. These are: 1) E17.5 differentiating hippocampal neurons expressing NeuroD6; 2) the PC12-NeuroD6 neuronal cell line recapitulating the early stages of differentiation; 3) E12.5 timed-pregnant dams treated intraperitoneally with NaBt (1.2 g/Kg) or PBS; and 4) cultured primary skin fibroblasts isolated from two MELAS patients and a healthy subject. Patient fibroblasts are the most suitable system to investigate the therapeutic potential of the butyrate derivatives (NaBt, TBN, and AN9) within the context of the patient's nuclear background and heteroplasmy, as MELAS animal models have not been generated due to polyploidy of the mt genome, heteroplasmic load, and influence of the nuclear background on MELAS phenotypic variability. […]

[6] = flow cytometry, NaBt-treated vs control

SMILES: CCCC(=O)[O-].[Na+] [NaBt, sodium butyrate]
- mitochondria as percent of the cell volume [1]: 18%
- time of maximal increase of the mitochondrial biomass ([2]; NaBt 5 mM, mito-GFP time course): after three days
- increase in fluorescence intensity, MTR staining [2, 6]: 3.5 fold
- increase in mitochondrial mass, MTG staining [2, 6]: two-fold
- subset of genes targeted [3]: 2-5%
- acetylation of histone H2B [4]: hyperacetylated
- increased acetylation of H3K9 [4]: 250%
- increased acetylation of H4K12 [4]: 124%
- increased acetylation of the K27 residue of H3 [4]: 210%
- increase of in vivo mitochondrial mass of E17.5 neurons [5]: 1.6 fold
